One experiment deals with T1, human FPR2 (Homo sapiens, UniProt P25090).
T1 sequence (P25090 1-351): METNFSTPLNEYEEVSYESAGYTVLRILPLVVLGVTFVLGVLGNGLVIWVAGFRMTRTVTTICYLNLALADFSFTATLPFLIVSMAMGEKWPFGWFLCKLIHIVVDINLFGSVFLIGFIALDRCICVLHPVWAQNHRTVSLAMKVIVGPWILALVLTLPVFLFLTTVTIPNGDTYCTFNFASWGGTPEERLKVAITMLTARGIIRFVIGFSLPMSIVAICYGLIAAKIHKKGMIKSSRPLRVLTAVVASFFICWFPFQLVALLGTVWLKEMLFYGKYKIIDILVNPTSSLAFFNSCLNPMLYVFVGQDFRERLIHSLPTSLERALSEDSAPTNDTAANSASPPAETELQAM
The experiment in a line: FPR2 cyclic adenosine monophosphate (cAMP) assay. It counts as cell-based. To be noted: CHO cells overexpressing human FPR2; forskolin 5 μM; inhibition of cAMP production; HTRF; read-out: hFPR2 cAMP2 EC50. In outline: (§1)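 Inhibition of forskolin-stimulated cAMP (final forskolin 5 μM for FPR2, 10 μM for FPR1; IBMX 200 μM) was measured by HTRF in recombinant CHO cells after 30 min at room temperature.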
For orientation: Changes in cAMP serve as a functional read-out for many G protein-coupled receptors.

A further experiment deals with T2, human FPR1 (Homo sapiens, UniProt P21462).
T2 sequence (P21462 1-350): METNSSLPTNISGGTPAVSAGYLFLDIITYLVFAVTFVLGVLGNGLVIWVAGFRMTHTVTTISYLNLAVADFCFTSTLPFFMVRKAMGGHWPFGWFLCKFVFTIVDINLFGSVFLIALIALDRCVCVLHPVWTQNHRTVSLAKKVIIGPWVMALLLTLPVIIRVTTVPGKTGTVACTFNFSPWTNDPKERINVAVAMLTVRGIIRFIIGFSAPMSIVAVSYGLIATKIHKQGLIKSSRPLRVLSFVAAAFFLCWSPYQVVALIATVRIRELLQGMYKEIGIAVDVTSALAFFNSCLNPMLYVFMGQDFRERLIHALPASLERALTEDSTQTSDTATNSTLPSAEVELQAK
Description: FPR1 cyclic adenosine monophosphate (cAMP) assay. Format: cell-based. To be noted: CHO cells overexpressing human FPR1; forskolin 10 μM; inhibition of cAMP production; HTRF; read-out: hFPR1 cAMP2 EC50. In outline: as §1

Bounds are passed on as bounds.

As a reminder, the EC50 is the concentration giving half of the maximal effect.

As to `COc1cc(F)c(-c2c(NC(=O)c3ccc(OC(F)F)cc3)c(=O)n(-c3nc(Cl)ccc3N3CCN(C)CC3)n2C)c(F)c1` [Example 217, N-{2-[6-chloro-3-(4-methylpiperazin-1-yl)pyridin-2-yl]-5-(2,6-difluoro-4-methoxyphenyl)-1-methyl-3-oxo-2,3-dihydro-1H-pyrazol-4-yl}-4-(difluoromethoxy)benzamide], the EC50 at human FPR2 is 6 nM; on human FPR1 it was over 10000 nM.
As to `COc1cc(F)c(-c2c(NC(=O)c3ccc(OC(F)F)cc3)c(=O)n(-c3cccn(C)c3=O)n2C)c(F)c1` [Example 395, N-(5-(2,6-Difluoro-4-methoxyphenyl)-1-methyl-2-(1-methyl-2-oxo-1,2-dihydropyridin-3-yl)-3-oxo-2,3-dihydro-1H-pyrazol-4-yl)-4-(difluoromethoxy)benzamide], the EC50 at human FPR2 was 61 nM; on human FPR1, over 10000 nM.
Turning to `COc1cc(F)c(-c2c(NC(=O)c3ccc(OC(F)F)cc3)c(=O)n(-c3cccc(N4CCN(CCS(C)(=O)=O)CC4)n3)n2C)c(F)c1` [Example 206, N-[5-(2,6-difluoro-4-methoxyphenyl)-2-{6-[4-(2-methanesulfonylethyl)piperazin-1-yl]pyridin-2-yl}-1-methyl-3-oxo-2,3-dihydro-1H-pyrazol-4-yl]-4-(difluoromethoxy)benzamide], the values for the EC50 at human FPR2 and on human FPR1 were 44 nM and over 5000 nM, respectively.
Regarding `COc1cc(F)c(-c2c(NC(=O)c3ccc(OC(F)F)cc3)c(=O)n(-c3nc(N4CC(O)C4)ccc3Cl)n2C)c(F)c1` [Example 300, N-{2-[3-chloro-6-(3-hydroxyazetidin-1-yl)pyridin-2-yl]-5-(2,6-difluoro-4-methoxyphenyl)-1-methyl-3-oxo-2,3-dihydro-1H-pyrazol-4-yl}-4-(difluoromethoxy)benzamide], the figures for the EC50 on human FPR2 and at human FPR1 were 7 nM and over 5000 nM, respectively.
On to `COc1cc(F)c(-c2c(NC(=O)c3ccc(OC(F)F)cc3)c(=O)n(-c3cc(C)cc(OCC4(C)COC4)n3)n2C)c(F)c1` [Example 353, N-(5-(2,6-Difluoro-4-methoxyphenyl)-1-methyl-2-(4-methyl-6-((3-methyloxetan-3-yl)methoxy)pyridin-2-yl)-3-oxo-2,3-dihydro-1H-pyrazol-4-yl)-4-(difluoromethoxy)benzamide], for which the EC50 at human FPR2 was found to be 2 nM; at human FPR1, 1600 nM.
As for `COc1cc(F)c(-c2c(NC(=O)c3ccc(OC(F)F)cc3)c(=O)n(-c3ncccc3OC(F)F)n2C)c(F)c1` [Example 158, N-[5-(2,6-difluoro-4-methoxyphenyl)-2-[3-(difluoromethoxy)pyridin-2-yl]-1-methyl-3-oxo-2,3-dihydro-1H-pyrazol-4-yl]-4-(difluoromethoxy)benzamide], the EC50 is 13 nM on human FPR2 and over 10000 nM at human FPR1.
Consider `COc1cc(F)c(-c2c(NC(=O)c3ccc(OC(F)F)cc3)c(=O)n(-c3cc(F)ccc3C#N)n2C)c(F)c1` [Example 188, N-[2-(2-cyano-5-fluorophenyl)-5-(2,6-difluoro-4-methoxyphenyl)-1-methyl-3-oxo-2,3-dihydro-1H-pyrazol-4-yl]-4-(difluoromethoxy)benzamide], for which the EC50 on human FPR2 is 14 nM; at human FPR1, over 10000 nM.
For the molecule `COc1ccc(-c2c(NC(=O)c3ccc(OC(F)F)cc3)c(=O)n(-c3ncccc3C(F)(F)F)n2C)cc1Cl` [Example 221, N-(5-(3-chloro-4-methoxyphenyl)-1-methyl-3-oxo-2-(3-(trifluoromethyl)pyridin-2-yl)-2,3-dihydro-1H-pyrazol-4-yl)-4-(difluoromethoxy)benzamide], the EC50 at human FPR2 was 141 nM; on human FPR1, over 5000 nM.
For the molecule `COc1cc(F)c(-c2c(NC(=O)c3ccc(OC(F)F)cc3)c(=O)n(-c3nc(N4CCN(C)C(=O)C4)ccc3C(F)(F)F)n2C)c(F)c1` [Example 220, N-[5-(2,6-difluoro-4-methoxyphenyl)-1-methyl-2-[6-(4-methyl-3-oxopiperazin-1-yl)-3-(trifluoromethyl)pyridin-2-yl]-3-oxo-2,3-dihydro-1H-pyrazol-4-yl]-4-(difluoromethoxy)benzamide], the EC50 on human FPR2 was determined as 2 nM; on human FPR1, 560 nM.
The corresponding values for `COc1cc(F)c(-c2c(NC(=O)c3ccc(OC(F)F)cc3)c(=O)n(-c3cccc(OC)c3Cl)n2C)c(F)c1` [Example 181, N-[2-(2-chloro-3-methoxyphenyl)-5-(2,6-difluoro-4-methoxyphenyl)-1-methyl-3-oxo-2,3-dihydro-1H-pyrazol-4-yl]-4-(difluoromethoxy)benzamide] are 6 nM and 140 nM.
Consider `COc1cc(F)c(-c2c(NC(=O)c3ccc(Cl)cc3)c(=O)n(-c3ncccc3Cl)n2C)c(F)c1` [Example 164, 4-chloro-N-[2-(3-chloropyridin-2-yl)-5-(2,6-difluoro-4-methoxyphenyl)-1-methyl-3-oxo-2,3-dihydro-1H-pyrazol-4-yl]benzamide], for which the results for the EC50 at human FPR2 and at human FPR1 were 15 nM and over 10000 nM, respectively.
The matching figures for `COc1cc(F)c(-c2c(NC(=O)c3ccc(OC(F)F)cc3)c(=O)n(-c3nc(C(F)(F)F)ccc3OC)n2C)c(F)c1` [Example 371, N-(5-(2,6-Difluoro-4-methoxyphenyl)-2-(3-methoxy-6-(trifluoromethyl)pyridin-2-yl)-1-methyl-3-oxo-2,3-dihydro-1H-pyrazol-4-yl)-4-(difluoromethoxy)benzamide]: 6 nM and 240 nM.
The matching figures for `COc1cc(F)c(-c2c(NC(=O)c3ccc(OC(F)F)cc3)c(=O)n(-c3cccc(CO)n3)n2C)c(F)c1` [Example 81, N-[5-(2,6-difluoro-4-methoxyphenyl)-2-[6-(hydroxymethyl)pyridin-2-yl]-1-methyl-3-oxo-2,3-dihydro-1H-pyrazol-4-yl]-4-(difluoromethoxy)benzamide]: 17 nM and over 10000 nM.
Turning to `COc1cc(O)nc(-n2c(=O)c(NC(=O)c3ccc(OC(F)F)cc3)c(-c3c(F)cc(OC)cc3F)n2C)c1` [Example 326, N-(5-(2,6-Difluoro-4-methoxyphenyl)-2-(6-hydroxy-4-methoxypyridin-2-yl)-1-methyl-3-oxo-2,3-dihydro-1H-pyrazol-4-yl)-4-(difluoromethoxy)benzamide], the EC50 is 58 nM at human FPR2 and 1600 nM at human FPR1.
For `COc1cc(F)c(-c2c(NC(=O)c3ccc(OC(F)F)cc3)c(=O)n(-c3cccc(N4CC[C@H](O)C4)n3)n2C)c(F)c1` [Example 102, N-[5-(2,6-difluoro-4-methoxyphenyl)-2-{6-[(3S)-3-hydroxypyrrolidin-1-yl]pyridin-2-yl}-1-methyl-3-oxo-2,3-dihydro-1H-pyrazol-4-yl]-4-(difluoromethoxy)benzamide], the values for the EC50 at human FPR2 and on human FPR1 were 2 nM and 1000 nM, respectively.
The corresponding values for `COc1cc(F)c(-c2c(NC(=O)c3ccc(OC(F)(F)F)cc3)c(=O)n(-c3cccc(Cl)c3Cl)n2C)c(F)c1` [Example 35, N-[2-(2,3-dichlorophenyl)-5-(2,6-difluoro-4-methoxyphenyl)-1-methyl-3-oxo-2,3-dihydro-1H-pyrazol-4-yl]-4-(trifluoromethoxy)benzamide] are 6 nM and 1700 nM.
For the molecule `COc1cc(F)c(-c2c(NC(=O)c3ccc(OC(F)F)cc3)c(=O)n(-c3ccnc(OC)c3)n2C)c(F)c1` [Example 115, N-[5-(2,6-difluoro-4-methoxyphenyl)-2-(2-methoxypyridin-4-yl)-1-methyl-3-oxo-2,3-dihydro-1H-pyrazol-4-yl]-4-(difluoromethoxy)benzamide], the EC50 on human FPR2 was found to be 5 nM; at human FPR1, 280 nM.

The values above are taken from patent US12577206B2 (BRISTOL-MYERS SQUIBB COMPANY, priority 2020, dated 2026).
